Experimental findings from PubChem BioAssay AID248 (DTP/NCI, 2004) are described below.

The experiment concerns L1210 leukemia ip in BDF1 mice, survival T/C. The experiment is described as follows: NCI In Vivo Anticancer Drug Screen. Data for tumor model L1210 Leukemia (intraperitoneal) in B6D2F1 (BDF1) mice. The conditions noted are these: endpoint: mean survival time, higher = longer survival. In outline: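 Value reflects the ratio of survival in compound-treated mice to survival in vehicle-treated controls, with both groups carrying the same transplanted tumor.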

[1] abbreviates: dose: 100.0 mg/kg/injection, schedule: Q01DX001 (ip), vehicle: carboxymethylcellulose (CMC).
The mark [2] stands for this setting: dose: 200.0 mg/kg/injection, schedule: Q01DX001 (ip), vehicle: carboxymethylcellulose (CMC).
The mark [3] stands for this setting: dose: 400.0 mg/kg/injection, schedule: Q01DX001 (ip), vehicle: carboxymethylcellulose (CMC).
[4] abbreviates: dose: 12.5 mg/kg/injection, schedule: Q04DX002 (ip), vehicle: Klucel (hydroxypropylcellulose) (HPC).

Where “and” joins values, the source holds several entries; their conditions need not be identical. Equal values may be shown once. Inconclusive results and toxic doses are left out.

On to `CC(O)C1(O)C(O)CC(OC2c3cc4c(c(O)c3[C@@H]3C[C@@]2(C)OC32C=c3cc[nH]c3=N2)C(=O)c2cccc(O)c2C4=O)OC1C` (stereo not given in full), for which the T/C is, setting by setting: (dose: 0.5 mg/kg/injection, schedule: Q01DX009 (ip), vehicle: saline with Tween-80) 101 % of control; (dose: 1.0 mg/kg/injection, schedule: Q01DX009 (ip), vehicle: saline with Tween-80) 101 % of control; (dose: 2.0 mg/kg/injection, schedule: Q01DX009 (ip), vehicle: saline with Tween-80) 105 % of control; (dose: 2.0 mg/kg/injection, schedule: Q01DX009 (ip), vehicle: saline) 112 % of control; (dose: 4.0 mg/kg/injection, schedule: Q01DX009 (ip), vehicle: saline with Tween-80) 110 % of control; (dose: 4.0 mg/kg/injection, schedule: Q01DX009 (ip), vehicle: saline) 109 % of control. For the same compound, the T/C was 103 % of control (dose: 8.0 mg/kg/injection, schedule: Q01DX009 (ip), vehicle: saline with Tween-80); 106 % of control (dose: 8.0 mg/kg/injection, schedule: Q01DX009 (ip), vehicle: saline); 121 % of control (dose: 16.0 mg/kg/injection, schedule: Q01DX009 (ip), vehicle: saline); 104 % of control (dose: 32.0 mg/kg/injection, schedule: Q01DX009 (ip), vehicle: saline).

Take `CN(Cc1cnc2nc(N)nc(N)c2n1)c1ccc(C(=O)NC(CCC(=O)O)C(=O)O)c(Cl)c1` (stereo not given): the T/C (dose: 25.0 mg/kg/injection, schedule: Q01DX009 (ip), vehicle: sodium bicarbonate) was 154 % of control.

In the case of `O=C1CC(C(=O)Nc2ccccc2)C(c2ccccc2)(c2ccccc2)O1` (stereo not given), the T/C by setting is: under setting [1], 97 % of control; under setting [2], 106 % of control; under setting [3], 95 % of control.

On to `c1ccc(C2=NC3CCCCC3N=C2c2ccccc2)cc1` (stereo not given), for which the T/C was 101 % of control (dose: 100.0 mg/kg/injection, schedule: Q04DX003 (ip), vehicle: saline with Tween-80); 95 % of control (dose: 200.0 mg/kg/injection, schedule: Q04DX003 (ip), vehicle: saline with Tween-80); 96 % of control (dose: 400.0 mg/kg/injection, schedule: Q04DX003 (ip), vehicle: saline with Tween-80).

In the case of `CCCCSSC(Cl)(Cl)Cl`, the T/C (dose: 6.25 mg/kg/injection, schedule: Q01DX009 (ip), vehicle: carboxymethylcellulose (CMC)) was 96 % of control and 104 % of control; the T/C (dose: 12.5 mg/kg/injection, schedule: Q01DX001 (ip), vehicle: carboxymethylcellulose (CMC)) was 98 % of control; the T/C (dose: 12.5 mg/kg/injection, schedule: Q01DX009 (ip), vehicle: carboxymethylcellulose (CMC)) was 101 % of control and 89 % of control; the T/C (dose: 12.5 mg/kg/injection, schedule: Q04DX003 (ip), vehicle: carboxymethylcellulose (CMC)) was 96 % of control; the T/C (dose: 25.0 mg/kg/injection, schedule: Q01DX001 (ip), vehicle: carboxymethylcellulose (CMC)) is 95 % of control; the T/C (dose: 25.0 mg/kg/injection, schedule: Q01DX009 (ip), vehicle: carboxymethylcellulose (CMC)) is 96 % of control. Further, the T/C (dose: 25.0 mg/kg/injection, schedule: Q04DX002 (ip), vehicle: carboxymethylcellulose (CMC)) is 95 % of control and 107 % of control; the T/C (dose: 25.0 mg/kg/injection, schedule: Q04DX003 (ip), vehicle: carboxymethylcellulose (CMC)) was 96 % of control; the T/C (dose: 50.0 mg/kg/injection, schedule: Q01DX001 (ip), vehicle: carboxymethylcellulose (CMC)) is 88 % of control; the T/C (dose: 50.0 mg/kg/injection, schedule: Q04DX002 (ip), vehicle: carboxymethylcellulose (CMC)) is 95 % of control and 101 % of control; the T/C (dose: 50.0 mg/kg/injection, schedule: Q04DX003 (ip), vehicle: carboxymethylcellulose (CMC)) is 103 % of control and 91 % of control; the T/C (dose: 200.0 mg/kg/injection, schedule: Q04DX002 (ip), vehicle: carboxymethylcellulose (CMC)) was 86 % of control.

For `Cc1nnc2c3ccccc3c(-c3ccccc3)nn12`, the T/C runs as follows: under setting [1], 104 % of control; under setting [2], 106 % of control.

`Cc1ccc(C)c2c1CCCC2=O`: the T/C is 110 % of control (dose: 12.5 mg/kg/injection, schedule: Q01DX009 (ip), vehicle: saline with Tween-80); 107 % of control and 114 % of control (dose: 25.0 mg/kg/injection, schedule: Q01DX009 (ip), vehicle: saline with Tween-80); 98 % of control and 106 % of control (dose: 50.0 mg/kg/injection, schedule: Q01DX009 (ip), vehicle: saline with Tween-80); 88 % of control (dose: 100.0 mg/kg/injection, schedule: Q01DX009 (ip), vehicle: saline with Tween-80); 93 % of control (dose: 200.0 mg/kg/injection, schedule: Q01DX009 (ip), vehicle: saline with Tween-80); 96 % of control (dose: 400.0 mg/kg/injection, schedule: Q01DX009 (ip), vehicle: saline with Tween-80).

As for `O=C1CCCC(c2ccccc2)C1` (stereo not given), the T/C (dose: 75.0 mg/kg/injection, schedule: Q01DX001 (ip), vehicle: other) is 95 % of control; the T/C (dose: 150.0 mg/kg/injection, schedule: Q01DX001 (ip), vehicle: other) is 92 % of control; the T/C (dose: 300.0 mg/kg/injection, schedule: Q01DX001 (ip), vehicle: other) was 95 % of control.

Consider `O=C1OC(=O)C2C=CC=CC12` (stereo not given), for which the T/C (dose: 100.0 mg/kg/injection, schedule: Q04DX002 (ip), vehicle: saline with Tween-80) is 92 % of control; the T/C (dose: 200.0 mg/kg/injection, schedule: Q04DX002 (ip), vehicle: saline with Tween-80) is 103 % of control; the T/C (dose: 400.0 mg/kg/injection, schedule: Q04DX002 (ip), vehicle: saline with Tween-80) is 95 % of control.

As for `NC(=O)c1ncc(-c2ccccc2)[nH]c1=O`, the T/C runs as follows: (dose: 100.0 mg/kg/injection, schedule: Q01DX009 (ip), vehicle: saline) 105 % of control; (dose: 200.0 mg/kg/injection, schedule: Q01DX009 (ip), vehicle: saline) 92 % of control.

Consider `CC12CCCC([N+](=O)[O-])(C1)NC(=O)C2C#N` (stereo not given), for which the T/C (dose: 100.0 mg/kg/injection, schedule: Q01DX001 (ip), vehicle: saline) was 105 % of control; the T/C (dose: 200.0 mg/kg/injection, schedule: Q01DX001 (ip), vehicle: saline) was 106 % of control; the T/C (dose: 400.0 mg/kg/injection, schedule: Q01DX001 (ip), vehicle: saline) was 101 % of control.

Turning to `CCOC(=O)c1cc(C)[nH]c1C`, the T/C by setting is: (dose: 100.0 mg/kg/injection, schedule: Q01DX009 (ip), vehicle: gum acacia) 100 % of control; (dose: 200.0 mg/kg/injection, schedule: Q01DX009 (ip), vehicle: gum acacia) 95 % of control; (dose: 400.0 mg/kg/injection, schedule: Q01DX009 (ip), vehicle: gum acacia) 105 % of control.

As for `CCOP(=O)(OCC)c1cccc(Cl)c1`, the T/C (dose: 75.0 mg/kg/injection, schedule: Q01DX001 (ip), vehicle: saline) was 101 % of control.

On to `COC1OC2COC(c3ccccc3)OC2C(OC(=O)c2ccccc2)C1OC(=O)c1ccccc1` (stereo not given), for which the T/C reads like this: under setting [4], 104 % of control; (dose: 25.0 mg/kg/injection, schedule: Q04DX002 (ip), vehicle: Klucel (hydroxypropylcellulose) (HPC)) 100 % of control; (dose: 50.0 mg/kg/injection, schedule: Q04DX002 (ip), vehicle: Klucel (hydroxypropylcellulose) (HPC)) 98 % of control.

Turning to `CCCCC(CCCC)c1ccccn1`, the T/C was 97 % of control (dose: 100.0 mg/kg/injection, schedule: Q04DX003 (ip), vehicle: saline); 97 % of control (dose: 200.0 mg/kg/injection, schedule: Q04DX003 (ip), vehicle: saline); 93 % of control (dose: 400.0 mg/kg/injection, schedule: Q04DX003 (ip), vehicle: saline).

Consider `Cc1ccc(S(=O)(=O)Nc2ccccc2N=Cc2ccc(N(CCCl)CCCl)cc2)cc1`, for which the T/C is 115 % of control under setting [1], 106 % of control under setting [2] and 90 % of control under setting [3].

As to `CCCCCCCCCCCCCCCCOC(=O)CC(=O)OCCCCCCCCCCCCCCCC`, the T/C is, setting by setting: (dose: 100.0 mg/kg/injection, schedule: Q01DX001 (ip), vehicle: other) 86 % of control; (dose: 200.0 mg/kg/injection, schedule: Q01DX001 (ip), vehicle: other) 100 % of control; (dose: 400.0 mg/kg/injection, schedule: Q01DX001 (ip), vehicle: other) 108 % of control.

As to `CCC[CH2][Sn]1([CH2]CCC)[O]OC2([O]1)C1CC3CC(C1)CC2C3` (stereo not given), the T/C reads like this: (dose: 3.0 mg/kg/injection, schedule: Q04DX002 (ip), vehicle: Klucel (hydroxypropylcellulose) (HPC)) 90 % of control; (dose: 6.0 mg/kg/injection, schedule: Q04DX002 (ip), vehicle: Klucel (hydroxypropylcellulose) (HPC)) 108 % of control; (dose: 12.0 mg/kg/injection, schedule: Q04DX002 (ip), vehicle: Klucel (hydroxypropylcellulose) (HPC)) 108 % of control; under setting [4], 101 % of control.

In the case of `CCOC(OCC)c1nc(NC(C)=O)[nH]c(=O)c1CCCCc1ccccc1`, the T/C reads like this: (dose: 200.0 mg/kg/injection, schedule: Q01DX001 (ip), vehicle: saline with Tween-80) 88 % of control; (dose: 400.0 mg/kg/injection, schedule: Q01DX001 (ip), vehicle: saline with Tween-80) 91 % of control.
